“And” between values parts separate entries of the source, which are not always exact repeats. Identical values can stand only once. Like-named read-outs stand apart in the source and are kept apart here.
Legend:
[1] = target: Glycogen synthase kinase 3β; conditions: cited from earlier work; for Inhibition Mode / IC50: reference controls; for IC50: read-out: IC50, GSK-3β inhibition
BACE1 = tested on: BACE1; design: method as in PMID 29679864; conditions: cited from earlier work
human recombinant GSK-3β [2] = target: T1, human recombinant GSK-3β (Homo sapiens, UniProt P49841); test: GSK-3β enzyme inhibition assay (Kinase-Glo luminescent kinase assay); assay type: biochemical; conditions: pure compounds, mean ± SEM of triplicate experiments
T1 construct: purchased ProSpec-Tany TechnoGene Ltd., Ness-Ziona, Israel
Description: The enzymatic inhibition of GSK-3β in vitro was evaluated with human recombinant GSK-3β by using a Kinase-Glo reagent kit, according to Baki et al. [52] with a slight modification. The kinase reaction was performed in 384-well black plates. Test concentrations were prepared through serial dilution by using an assay buffer (pH 7.5) containing 50 mM HEPES, 1 mM EDTA, 1 mM EGTA, and 15 mM magnesium acetate. To initiate the reaction, 5 µL of sample, 5 µL of ATP (1 µM final concentration), 5 µL of 50 µM GSM, and 5 µL of 20 ng GSK-3β were mixed simultaneously in each well (the final DMSO concentration in the reaction mixture was less than 5%). Test samples were replaced by 5 µL of either buffer or luteolin to produce positive control (maximum activity) and negative control (total inhibition) samples. The reaction mixture was incubated at 37 °C for 30 min and was followed by the addition of the 20-µL Kinase-Glo reagent to stop the reaction. Glow-type luminescence was recorded after 10 min. The activity was proportional to the difference between total and consumed ATP. Inhibition activities were calculated on the basis of maximal activity, measured in the absence of the inhibitor, and the maximal inhibition was measured in the presence of the reference compound.

[3] = design: method as in PMID 21903108; conditions: induced by scopolamine or Aβ25–35; cited from earlier work
[4] = design: method as in PMID 15484228, PMID 16905282; conditions: oral administration; cited from earlier work
[5] = tested on: induced pluripotent stem cells (iPSCs); design: method as in PMID 29421539; conditions: via the AKT/GSK-3β signaling pathway; cited from earlier work
human recombinant GSK-3β [6] = target: T1, human recombinant GSK-3β; test: GSK-3β enzyme kinetics (Lineweaver–Burk and secondary plots, varying ATP or GSM substrate); assay type: biochemical; conditions: for Ki: from secondary plots; for Inhibition Mode: Lineweaver–Burk plots
Description: The mode of GSK-3β enzyme inhibition by Sal B was characterized via kinetic study by using various concentrations of GSM substrate and ATP. Lineweaver–Burk plots showing reciprocal rates versus reciprocal GSM substrate/ATP concentrations (Figure 3) were deployed to explore the GSK-3β inhibition mechanism.
The GSK-3β enzyme kinetics was evaluated by using the assay method described in Section 4.4 with varying concentrations of ATP (2 µM, 1 µM, or 0.5 µM) or substrate (50 µM, 25 µM, or 12.5 µM). A Lineweaver–Burk plot was prepared by using double reciprocal plots of enzyme kinetic data. Ki values were calculated from the secondary plots.

[7] = design: method as in PMID 29027831; conditions: nasal administration in rats, cited from earlier work
SH-SY5Y-APPsw cells = tested on: SH-SY5Y-APPsw cells; design: method as in PMID 27258307; conditions: by modulating BACE1 activity; cited from earlier work
PC12 cells = tested on: PC12 cells; design: method as in PMID 19101570; conditions: 20 µg/mL; cited from earlier work
[8] = read-out: IC50 (Mean ± SEM), GSK-3β inhibition
[9] = IC50 (Mean ± SEM), GSK-3β inhibition

T1 sequence (P49841 whole entry): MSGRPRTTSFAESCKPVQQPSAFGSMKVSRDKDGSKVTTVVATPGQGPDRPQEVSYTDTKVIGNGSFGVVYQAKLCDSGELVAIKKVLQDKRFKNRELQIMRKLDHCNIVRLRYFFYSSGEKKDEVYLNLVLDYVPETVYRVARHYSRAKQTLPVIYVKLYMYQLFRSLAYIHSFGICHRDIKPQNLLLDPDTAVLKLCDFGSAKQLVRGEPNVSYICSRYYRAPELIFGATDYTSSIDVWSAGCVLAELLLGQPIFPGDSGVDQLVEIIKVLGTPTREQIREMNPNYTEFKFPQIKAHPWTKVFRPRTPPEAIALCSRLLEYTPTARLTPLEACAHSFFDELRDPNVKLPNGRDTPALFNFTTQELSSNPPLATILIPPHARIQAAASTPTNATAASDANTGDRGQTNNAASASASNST

Row | Structure (SMILES) | Inhibition Mode [1] | IC50 [1] [µM] | BACE1 inhibitory activity (BACE1) | IC50 (human recombinant GSK-3β [2]; [8]) | other results
1 | COc1ccc(CNC(=O)Nc2ncc([N+](=O)[O-])s2)cc1 [AR-A014418] | ATP-competitive [30] | 0.1 | – | – | Ki ([1]; reference control): 0.03 µM
2 | O=C1Nc2ccccc2/C1=C1/Nc2ccccc2C1=O [Indirubin] | ATP-competitive [32] | 0.6 | – | – | –
3 | O=C(/C=C/c1ccc(O)c2c1[C@H](C(=O)O[C@H](Cc1ccc(O)c(O)c1)C(=O)O)[C@@H](c1ccc(O)c(O)c1)O2)O[C@H](Cc1ccc(O)c(O)c1)C(=O)O [Magnesium lithospermate B] | – | – | potent activity | ~30 µM and 33.1 µM | –
4 | O=C(C=Cc1ccc(O)c2c1C(C(=O)OC(Cc1ccc(O)c(O)c1)C(=O)O)C(c1ccc(O)c(O)c1)O2)OC(Cc1ccc(O)c(O)c1)C(=O)O (stereo not drawn) [Salvianolic acid B] | – | – | – | – | cognitive impairments [3]: reverses cognitive impairments; time to maximum plasma concentration [4]: 0.5 to 1 h; time traceable after administration [4]: up to 180 min; proliferation and differentiation into neurons of iPSCs [5]: potently improved; Ki (human recombinant GSK-3β [6]; ATP-competitive inhibition, constant GSM substrate (25 μM), varying ATP (0.5, 1, 2 μM)): 5.44 µM; Ki (human recombinant GSK-3β [6]; muscle glycogen synthase (GSM)-competitive inhibition, constant ATP (1 μM), varying GSM substrate (12.5, 25, 50 μM)): 6.32 µM; Inhibition Mode (human recombinant GSK-3β [6]): ATP-competitive; Inhibition Mode (human recombinant GSK-3β [6]; listed as Sal B): ATP-competitive and GSM substrate–competitive; IC50 (human recombinant GSK-3β [2]; [9]): 6.97 ± 0.96 µM; brain-targeting efficacy ([7]; compared to intravenous and oral administration): 5.54; bioavailability [7]: 43.98%; Aβ generation (SH-SY5Y-APPsw cells): inhibited Aβ generation
5 | O=C(/C=C/c1ccc(O)c2oc(-c3ccc(O)c(O)c3)cc12)O[C@H](Cc1ccc(O)c(O)c1)C(=O)O [Salvianolic acid C] | – | – | potent activity | ~30 µM and 31.8 µM | –
6 | O=c1cc(-c2ccc(O)c(O)c2)oc2cc(O)cc(O)c12 [Luteolin, reference compound] | – | – | – | – | IC50 (human recombinant GSK-3β [2]; [9]): 2.18 ± 0.13 µM
7 | O=C(/C=C/c1ccc(O)c(O)c1)O[C@H](Cc1ccc(O)c(O)c1)C(=O)O [Rosmarinic acid] | – | – | potent activity | 135 ± 4.69 µM | –
8 | O=C(/C=C/c1ccc(O)c(O)c1/C=C/c1ccc(O)c(O)c1)O[C@H](Cc1ccc(O)c(O)c1)C(=O)O [Salvianolic acid A] | – | – | potent activity | ~30 µM and 30.2 µM | –
9 | O=C(O)/C=C/c1ccc(O)c(O)c1 [Caffeic acid] | – | – | – | 425 ± 7.61 µM | phosphorylation of GSK-3β and tau protein (PC12 cells): decreases the phosphorylation of GSK-3β and tau protein
10 | O=C1Cc2c([nH]c3ccc([N+](=O)[O-])cc23)-c2ccccc2N1 [Alsterpaullone] | ATP-competitive [31] | 0.004 | – | – | –

— PMC6278281, “Rosmarinic Acid Derivatives’ Inhibition of Glycogen Synthase Kinase-3β Is the Pharmacological Basis of Kangen-Karyu in Alzheimer’s Disease” (Molecules, 2018)
